Values of other authors in patent US12187997B2, “Integrated human organ-on-chip microphysiological systems” (President and Fellows of Harvard College, priority 2011, dated 2025).
Entries after “also recorded” stand apart in the source; their conditions may differ.

Columns and labels:
[1] = for Organ Toxicity: Table 1
[2] = for Clearence Mechanism (for PK): Table 1
[3] = relieving dyspnea in heart failure patients

Compound | Organ Toxicity [1] | Clearence Mechanism (for PK) [2] | toxicity in humans / in vivo [1] | clinical efficacy [3] | metabolism and elimination [2]
CCOC(=O)C1=C[C@@H](OC(CC)CC)[C@H](NC(C)=O)[C@@H](N)C1 [Tamiflu] | children <1 yr | Liver; Renal | – | – | –
Cc1c(C)c2c(c(C)c1O)CCC(C)(COc1ccc(CC3SC(=O)NC3=O)cc1)O2 (centres unmarked) [Troglitazone] | Liver | Liver | – | – | –
CC(=O)N1CCN(c2ccc(OCC3COC(Cn4ccnc4)(c4ccc(Cl)cc4Cl)O3)cc2)CC1 (centres unmarked) [Ketoconazole] | Liver DDI, tests | Liver | – | – | –
CC(C)(C)c1ccc(C(O)CCCN2CCC(C(O)(c3ccccc3)c3ccccc3)CC2)cc1 (centres unmarked) [Terfenadine] | Heart; also recorded: arrhythmia | – | cardiotoxic at higher doses in humans | – | –
Cc1ccc2c(c1)c1c(n2CCc2ccc(C)nc2)CCN(C)C1 [Latrepirdine] | – | (Crosses BBB) | – | – | –
COc1ccc(C(=O)N2CCN(c3ccc4c(c3)CCC(=O)N4)CC2)cc1OC [Vesnarinone] | Heart | Liver | – | – | –
N.N.[Cl][Pt][Cl] [Cisplatin] | – | Renal | – | – | –
COc1cccc2c1C(=O)c1c(O)c3c(c(O)c1C2=O)C[C@@](O)(C(=O)CO)C[C@@H]3O[C@H]1C[C@H](N)[C@H](O)[C@H](C)O1 [Doxorubicin] | Heart, gut, and bone marrow, and skin | Liver, Renal | – | – | –
COCc1c(C(C)C)nc(C(C)C)c(/C=C/[C@@H](O)C[C@@H](O)CC(=O)O)c1-c1ccc(F)cc1 [Cerivastatin] | Skeletal; also recorded: muscle,; also recorded: Kidney, Liver | Liver | major toxicities in vivo (rhabdylomysis) and liver toxicity | – | –
Nesiritide | – | Proteolysis,; also recorded: Renal | – | failed a large clinical trial for efficacy | primarily eliminated by the kidney
Cc1nnc(SCC2=C(C(=O)O)N3C(=O)[C@@H](NC(=O)Cn4cnnn4)[C@H]3SC2)s1 [Cefazolin] | Lung, Kidney | – | produces pulmonary blood clots and nephrotoxicity | – | –
Nc1ccn([C@H]2C[C@H](O)[C@@H](COP(=O)(O)OP(=O)(O)OP(=O)(O)OP(=O)(O)OC[C@H]3O[C@@H](n4ccc(=O)[nH]c4=O)[C@H](O)[C@@H]3O)O2)c(=O)n1 [Denufosol] | – | Aerosol | – | – | –
CC(C)NCC(O)c1ccc(O)c(O)c1 (centres unmarked) [Isoproterenol] | Heart | Renal | – | – | primarily metabolized and excreted by the kidney in humans
